According to patent US3978130A, “1-Cyclopropyl-1-phenyl-ω-amino-1-alkanols” (A. H. Robins Company, Incorporated, priority 1974, dated 1976):
Where a name gives a salt, the structure may show the parent alone.

These molecules were tested on depressant effects induced in mice by tetrabenazine (assay: Blocking of the depressant effects induced in mice by intravenous tetrabenazine (modified Englehardt procedure)). Settings: Mus musculus, IP.
Assay type: in vivo
Procedure: The activity of the compounds was determined by their effectiveness in blocking the depressant effects which are induced in mice by the intravenous administration of 2-oxo-3-isobutyl-9,10-dimethoxy-1,2,3,4,6,7-hexahydro-11bh-benzo[a] quinolizine (tetrabenazine). The procedure used was a modification of Englehardt, E. L. et al, J. Med. Chem. 11 (2), 325(1968). The ED50 values of the compounds are given in Table I; the compounds of Examples 3, 5, 7 and 8 are the preferred compounds.

SMILES	ED50
CNCCC(O)(c1cccc(C(F)(F)F)c1)C1CC1 (centres unmarked) [Example 8, 1-Cyclopropyl-3-methylamino-1-(3-trifluoromethylphenyl)-1-propanol]	4.6 mg/kg
CN(C)CCC(O)(c1ccc(C(F)(F)F)cc1)C1CC1 (centres unmarked) [Example 6, 1-Cyclopropyl-3-dimethylamino-1-(4-trifluoromethylphenyl)-1-propanol Hydrochloride]	12 mg/kg
CN(C)CCC(O)(c1ccccc1)C1CC1 (centres unmarked) [Example 1, 1-Cyclopropyl-3-dimethylamino-1-phenyl-1-propanol Hydrochloride]	10 mg/kg
CCN(CC)CCC(O)(c1cccc(C(F)(F)F)c1)C1CC1 (centres unmarked) [Example 7, 1-Cyclopropyl-3-diethylamino-1-(3-trifluoromethylphenyl)-1-propanol Hydrochloride]	4.2 mg/kg
CN(C)CCCC(O)(c1ccccc1)C1CC1 (centres unmarked) [Example 2, 1-Cyclopropyl-4-dimethylamino-1-phenyl-1-butanol Hydrochloride]	12.5 mg/kg
COc1ccc(C(O)(CCN(C)C)C2CC2)cc1 (centres unmarked) [Example 4, 1-Cyclopropyl-3-dimethylamino-1-(4-methoxyphenyl)-1-propanol Hydrobromide]	7.8 mg/kg
CN(C)CCC(O)(c1cccc(C(F)(F)F)c1)C1CC1 (centres unmarked) [Example 5, 1-Cyclopropyl-3-dimethylamino-1-(3-trifluoromethylphenyl)-1-propanol Hydrochloride]	2.5 mg/kg
CN(C)CCC(O)(c1cccc(Cl)c1)C1CC1 (centres unmarked) [Example 3, 1-Cyclopropyl-3-dimethylamino-1-(3-chlorophenyl)-1-propanol Hydrochloride]	6.4 mg/kg
